Measured values taken from ChEMBL document CHEMBL1201862, “PubChem BioAssay data set” (2004).
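Cultured in 96-well plates, cells were exposed to test compound for 48 hours across five concentrations. The concentration for 50% growth inhibition is given as GI50.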 The source made the active and inactive calls. Cut-off read from the data, not from the text of the source: active = GI50 up to about 1.1 µM and inactive = higher.

Legend:
Test in all cases: NCI anticancer screen, dose series, 48 h
[1] = system: DLD-1
[2] = system: COLO 205
[3] = system: SF-539
[4] = system: ACHN
[5] = system: NCI-H460
[6] = system: UO-31
[7] = system: HOP-62
[8] = system: SN12C
[9] = system: OVCAR-3
[10] = system: HCC 2998
[11] = system: SK-MEL-5
[12] = system: EKVX
[13] = system: KM-20L2
[14] = system: A498
[15] = system: SR
[16] = system: RXF 393
[17] = system: SK-MEL-28
[18] = system: HOP-92
[19] = system: UACC-257
[20] = system: NCI-H226
[21] = system: IGROV-1
[22] = system: SNB-78
[23] = system: HOP-18
[24] = system: CAKI-1
[25] = system: TK-10
[26] = system: HT-29
[27] = system: K562
[28] = system: SF-268
[29] = system: XF498
[30] = system: UACC-62
[31] = system: M19-MEL
[32] = system: SW-620
[33] = system: SF-295
[34] = system: Malme-3M
[35] = system: HCT-116
[36] = system: OVCAR-4
[37] = system: HL-60
[38] = system: NCI-H23
[39] = system: 786-0
[40] = system: RXF 631
[41] = system: SNB-19
[42] = system: OVCAR-8
[43] = system: M14
[44] = system: SNB-75
[45] = system: DMS-114
[46] = system: KM12
[47] = system: MOLT-4
[48] = system: U-251
[49] = system: NCI-H522
[50] = system: A549
[51] = system: SK-OV-3
[52] = system: CCRF-CEM
[53] = system: LOX IMVI
[54] = system: LXFL 529
[55] = system: RPMI-8226
[56] = system: HCT-15
[57] = system: OVCAR-5
[58] = system: DMS-273
[59] = system: SK-MEL-2

O=C(COC(=O)c1cccc2c(=O)c3ccccc3[nH]c12)Nc1ccc(C(=O)O)cc1
GI50 [1]: > 100 µM (inactive) | GI50 [2]: > 100 µM (inactive) | GI50 [3]: > 100 µM (inactive) | GI50 [4]: > 100 µM (inactive) | GI50 [5]: > 100 µM (inactive) | GI50 [6]: 71.3 µM (inactive) | GI50 [7]: > 100 µM (inactive) | GI50 [8]: > 100 µM (inactive) | GI50 [9]: 50 µM (inactive) | GI50 [10]: > 100 µM (inactive) | GI50 [11]: > 100 µM (inactive) | GI50 [12]: > 100 µM (inactive) | GI50 [13]: > 100 µM (inactive) | GI50 [14]: > 100 µM (inactive) | GI50 [15]: 30.8 µM (inactive) | GI50 [16]: 46.8 µM (inactive) | GI50 [17]: > 100 µM (inactive) | GI50 [18]: > 100 µM (inactive) | GI50 [19]: > 100 µM (inactive) | GI50 [20]: > 10 µM (inactive) | GI50 [21]: 99.1 µM (inactive) | GI50 [22]: 59.3 µM (inactive) | GI50 [23]: > 100 µM (inactive) | GI50 [24]: > 100 µM (inactive) | GI50 [25]: > 10 µM (inactive) | GI50 [26]: > 100 µM (inactive) | GI50 [27]: 70.6 µM (inactive) | GI50 [28]: > 100 µM (inactive) | GI50 [29]: 29.6 µM (inactive) | GI50 [30]: 71 µM (inactive) | GI50 [31]: > 100 µM (inactive) | GI50 [32]: > 100 µM (inactive) | GI50 [33]: > 100 µM (inactive) | GI50 [34]: > 100 µM (inactive) | GI50 [35]: 84.7 µM (inactive) | GI50 [36]: > 100 µM (inactive) | GI50 [37]: 94 µM (inactive) | GI50 [38]: > 100 µM (inactive) | GI50 [39]: > 100 µM (inactive) | GI50 [40]: > 100 µM (inactive) | GI50 [41]: > 100 µM (inactive) | GI50 [42]: 78.7 µM (inactive) | GI50 [43]: > 100 µM (inactive) | GI50 [44]: 42.5 µM (inactive) | GI50 [45]: 61.8 µM (inactive) | GI50 [46]: 47.2 µM (inactive) | GI50 [47]: 37.8 µM (inactive) | GI50 [48]: > 100 µM (inactive) | GI50 [49]: 43.7 µM (inactive) | GI50 [50]: > 100 µM (inactive) | GI50 [51]: > 100 µM (inactive) | GI50 [52]: 69.5 µM (inactive) | GI50 [53]: > 10 µM (inactive)

Cc1c(C(=O)C/C(=N/NC(=O)c2ccccc2)C(=O)Nc2ccc(Cl)cc2)[n+]([O-])c2ccccc2[n+]1[O-]
GI50 [1]: 75.7 µM (inactive) | GI50 [2]: > 100 µM (inactive) | GI50 [3]: > 100 µM (inactive) | GI50 [54]: 84.3 µM (inactive) | GI50 [4]: > 100 µM (inactive) | GI50 [5]: 49.1 µM (inactive) | GI50 [55]: 80.4 µM (inactive) | GI50 [7]: 90.8 µM (inactive) | GI50 [8]: > 100 µM (inactive) | GI50 [9]: 41.6 µM (inactive) | GI50 [56]: 68.5 µM | GI50 [11]: > 100 µM (inactive) | GI50 [57]: 79.3 µM (inactive) | GI50 [14]: > 100 µM (inactive) | GI50 [15]: 63.8 µM (inactive) | GI50 [16]: 85.1 µM (inactive) | GI50 [17]: > 100 µM (inactive) | GI50 [58]: 75.2 µM (inactive) | GI50 [19]: 69.8 µM (inactive) | GI50 [20]: > 100 µM (inactive) | GI50 [21]: 99.5 µM (inactive) | GI50 [22]: > 100 µM (inactive) | GI50 [23]: > 100 µM (inactive) | GI50 [24]: 82.4 µM (inactive) | GI50 [25]: > 100 µM (inactive) | GI50 [26]: > 100 µM (inactive) | GI50 [27]: 69 µM (inactive) | GI50 [28]: > 100 µM (inactive) | GI50 [29]: > 100 µM (inactive) | GI50 [32]: 46.2 µM (inactive) | GI50 [33]: 63.8 µM (inactive) | GI50 [34]: > 100 µM (inactive) | GI50 [35]: > 100 µM (inactive) | GI50 [36]: > 100 µM (inactive) | GI50 [37]: 29 µM (inactive) | GI50 [38]: 38.7 µM (inactive) | GI50 [39]: > 100 µM (inactive) | GI50 [40]: > 100 µM (inactive) | GI50 [41]: 88.3 µM (inactive) | GI50 [42]: > 100 µM (inactive) | GI50 [43]: > 100 µM (inactive) | GI50 [44]: > 100 µM (inactive) | GI50 [45]: 32.6 µM (inactive) | GI50 [46]: > 100 µM (inactive) | GI50 [47]: 47 µM (inactive) | GI50 [48]: > 100 µM (inactive) | GI50 [59]: > 100 µM (inactive) | GI50 [49]: 38.4 µM (inactive) | GI50 [50]: > 100 µM (inactive) | GI50 [51]: > 100 µM (inactive) | GI50 [52]: 32.4 µM (inactive) | GI50 [53]: 89.1 µM (inactive)

CCCCCCCCCCCc1cc(=O)c2c(O)cccc2o1
GI50 [1]: > 100 µM (inactive) | GI50 [2]: > 100 µM (inactive) | GI50 [3]: > 100 µM (inactive) | GI50 [54]: 55.1 µM (inactive) | GI50 [4]: > 100 µM (inactive) | GI50 [5]: 79.1 µM (inactive) | GI50 [6]: > 100 µM (inactive) | GI50 [55]: 30.6 µM (inactive) | GI50 [7]: > 100 µM (inactive) | GI50 [8]: > 100 µM (inactive) | GI50 [9]: > 100 µM (inactive) | GI50 [10]: 66.2 µM (inactive) | GI50 [56]: 54.8 µM | GI50 [11]: 44.8 µM (inactive) | GI50 [12]: 56.1 µM (inactive) | GI50 [57]: 88.7 µM (inactive) | GI50 [15]: 26.1 µM (inactive) | GI50 [16]: 70.6 µM (inactive) | GI50 [17]: 94.6 µM (inactive) | GI50 [18]: > 100 µM (inactive) | GI50 [58]: 56.6 µM (inactive) | GI50 [19]: 36 µM (inactive) | GI50 [20]: 37.8 µM (inactive) | GI50 [21]: > 100 µM (inactive) | GI50 [22]: > 100 µM (inactive) | GI50 [23]: > 100 µM (inactive) | GI50 [24]: > 100 µM (inactive) | GI50 [25]: > 100 µM (inactive) | GI50 [26]: 53.7 µM (inactive) | GI50 [27]: 43.7 µM (inactive) | GI50 [28]: > 100 µM (inactive) | GI50 [29]: 42.8 µM (inactive) | GI50 [30]: > 100 µM (inactive) | GI50 [31]: 43.8 µM (inactive) | GI50 [32]: > 100 µM (inactive) | GI50 [33]: 87.5 µM (inactive) | GI50 [34]: > 100 µM (inactive) | GI50 [35]: 41.9 µM (inactive) | GI50 [36]: > 100 µM (inactive) | GI50 [37]: 30.5 µM (inactive) | GI50 [38]: > 100 µM (inactive) | GI50 [39]: > 100 µM (inactive) | GI50 [40]: > 100 µM (inactive) | GI50 [41]: > 100 µM (inactive) | GI50 [42]: > 100 µM (inactive) | GI50 [43]: 64 µM (inactive) | GI50 [44]: > 100 µM (inactive) | GI50 [45]: 38.7 µM (inactive) | GI50 [46]: 54.2 µM (inactive) | GI50 [47]: 30.3 µM (inactive) | GI50 [48]: 95.7 µM (inactive) | GI50 [59]: 24.1 µM (inactive) | GI50 [49]: 71.1 µM (inactive) | GI50 [50]: 61.8 µM (inactive) | GI50 [51]: > 100 µM (inactive) | GI50 [52]: 20.3 µM (inactive) | GI50 [53]: 37.5 µM (inactive)

COc1ccc(C2=NN(C(C)=O)c3nc4ccccc4nc3O2)cc1
GI50 [1]: 25.4 µM (inactive) | GI50 [2]: > 100 µM (inactive) | GI50 [3]: 17.8 µM (inactive) | GI50 [54]: 31.4 µM (inactive) | GI50 [4]: 24.4 µM (inactive) | GI50 [5]: 32.1 µM (inactive) | GI50 [6]: 46.9 µM (inactive) | GI50 [55]: > 100 µM (inactive) | GI50 [7]: 23.1 µM (inactive) | GI50 [8]: > 100 µM (inactive) | GI50 [9]: > 100 µM (inactive) | GI50 [10]: > 100 µM (inactive) | GI50 [56]: 46.6 µM | GI50 [12]: 45.6 µM (inactive) | GI50 [15]: > 100 µM (inactive) | GI50 [17]: 92.3 µM (inactive) | GI50 [18]: 16.4 µM (inactive) | GI50 [58]: 42.1 µM (inactive) | GI50 [19]: 50.8 µM (inactive) | GI50 [21]: 3.33 µM (inactive) | GI50 [23]: 17.7 µM (inactive) | GI50 [25]: 21.3 µM (inactive) | GI50 [26]: > 100 µM (inactive) | GI50 [27]: > 100 µM (inactive) | GI50 [28]: 31.3 µM (inactive) | GI50 [29]: 19.1 µM (inactive) | GI50 [30]: 61.4 µM (inactive) | GI50 [31]: 89.7 µM (inactive) | GI50 [32]: > 100 µM (inactive) | GI50 [33]: 26.1 µM (inactive) | GI50 [34]: 70.6 µM (inactive) | GI50 [35]: 53.3 µM (inactive) | GI50 [36]: 11 µM (inactive) | GI50 [37]: > 100 µM (inactive) | GI50 [38]: 55.2 µM (inactive) | GI50 [39]: 15.2 µM (inactive) | GI50 [40]: 23 µM (inactive) | GI50 [41]: 27 µM (inactive) | GI50 [42]: 37.3 µM (inactive) | GI50 [44]: 6.28 µM (inactive) | GI50 [45]: 42.2 µM (inactive) | GI50 [46]: > 100 µM (inactive) | GI50 [47]: > 100 µM (inactive) | GI50 [48]: 18.9 µM (inactive) | GI50 [59]: 8.02 µM (inactive) | GI50 [49]: 20.8 µM (inactive) | GI50 [50]: 40.6 µM (inactive) | GI50 [52]: > 100 µM (inactive)
